Measurements taken from patent publication US20040076968A1, “Method for detecting pre-disposition to hepatotoxicity” (priority 2000, published 2004).

Assays:
UGT1A6 gene = assay: Association of UGT1A6 polymorphisms with liver function abnormality in tolcapone-treated patients (case-control genotyping); type: in vivo, human
Experimental: (§1) Disease severity had already been controlled for by the original study inclusion criteria.
(§2) In the KTC format, the generation of double-stranded amplification product is monitored using a DNA intercalating dye and a thermal cycler which has a fluorescence-detecting CCD camera attached (PE-Bipsystems GeneAmp 5700 Sequence Detection System). Fluorescence in each well of the PCR amplification plate is measured at each cycle of annealing and denaturation. The cycle at which the relative fluorescence reached a threshold of 0.5 using the SDS sofiware from PE-Biosystems was defined as the Ct.
(§3) The amplification reactions were designed to be allele-specific, so that the amplification reaction was positive if the polymorphism was present and the amplification reaction was negative if the polymorphism was absent. For each bi-allelic polymorphism, one well of the amplification plate was set up to be specific for allele 1 and a second well was set up to be specific for allele 2. For each polymorphism to be detected, three primers were designed—two allele-specific primers and one common primer (Table 3). Reactions for allele 1 contained allele 1-specific primer and the common primer and reactions for allele 2 contained allele 2-specific primer and the common primer.
(§4) The Ct of each amplification reaction was determined and the difference between the Ct for allele 1 and allele 2 (delta Ct) was, used as the assay result. Samples with delta Cts between −3.0 and 3.0 were considered heterozygous (A1/A2). Samples with delta Cts below −3.0 were considered homozygous for A1 (A1/A1); samples with delta Cts above 3.0 were considered homozygous for A2 (A2/A2).
For all other single nucleotide polymorphisms (SNPs) discovery and genotyping was done by double-stranded DNA sequencing using an ABI capillary sequencer and Big Dye chemistry (ABI). The primers used to amplify all exons are shown below and were also used as sequencing primers. Publicly available genomic sequences were used as references for primer design. All polymorphisms were targeted with these pairs-of-primer sets:
(§5) The patient samples were divided into two groups.
(§6) For each genotype, the following analyses were performed:
(§7) a) Analysis of the entire genotype: patients were classified according to the following three categories: homozygous 1/1 (two copies of allele 1 and no copies of allele 2), heterozygous 1/2 (one copy of allele 1 and one copy of allele 2) or homozygous 2/2 (no copies of allele 1 and two copies of allele 2). Analysis was conducted to assess whether there were differences in the proportion of case patients in each of these groups, compared with the proportion of control patients. The Cochran-Maentel-Hanszel (CMH) test was applied to the data presented in a 2-by-3 table (the two columns indicating presence or absence of liver function abnormality and the three rows indicating the three categories of the genotype).
(§8) b) Analysis of alleles: the presence of allele 1 or 2 in case patients was compared to the presence of the respective allele in the control patients.
(§9) c) Analysis of allele counts: this analysis was conducted to compare the distribution of the alleles in patients with liver function abnormality to that of patients without abnormality. The total number of copies of allele 1 among patients with liver function abnormality was compared with the total number of copies of allele 2 among these case patients.

[1] = tested on: UGT1A gene 3′UTR (exon 5); assay: Association of the UGT1A 3′UTR polymorphism with liver function abnormality in tolcapone-treated patients (case-control genotyping); type: in vivo, human; conditions: UGT1A-3′_908
Experimental: as §1, §2, §3, §4, §5, §6, §7, §8
as §9, with “patients. The CMH test was applied to the data using a 2-by-2 table (the two columns indicating presence or absence of liver function abnormality and the two rows indicating the two allele counts).” for “patients.”
All markers showing significant association to elevated liver transaminases corresponded to SNPs in the UGT1 genes.

[2] = tested on: rat hepatotocyte cultures; assay: Cytotoxicity in rat hepatocyte cultures; type: cell-based; conditions: in vitro

n (%) of allele copies (UGT1A6 gene; UGT1A6_754 Thr181Ala, Count Allele Ala, Liver Function Abnormality Present): 109 (40.4%) | n (%) of allele copies (UGT1A6 gene; UGT1A6_754 Thr181Ala, Count Allele Thr, Liver Function Abnormality Absent): 396 (72.3%) | n (%) of allele copies (UGT1A6 gene; UGT1A6_754 Thr181Ala, Count Allele Thr, Liver Function Abnormality Present): 161 (59.6%) | n (%) of patients (UGT1A6 gene; UGT1A6_754 Thr181Ala, Genotype Heterozygous Thr/Ala, Liver Function Abnormality Absent): 108 (39.4%) | n (%) of patients (UGT1A6 gene; UGT1A6_754 Thr181Ala, Genotype Heterozygous Thr/Ala, Liver Function Abnormality Present): 59 (43.7%) | n (%) of patients (UGT1A6 gene; UGT1A6_754 Thr181Ala, Genotype Homozygous Ala/Ala, Liver Function Abnormality Absent): 22 (8.8%) | n (%) of patients (UGT1A6 gene; UGT1A6_754 Thr181Ala, Genotype Homozygous Ala/Ala, Liver Function Abnormality Present): 25 (18.5%) | n (%) of patients (UGT1A6 gene; UGT1A6_754 Thr181Ala, Genotype Homozygous Thr/Thr, Liver Function Abnormality Absent): 144 (52.6%) | n (%) of patients (UGT1A6 gene; UGT1A6_754 Thr181Ala, Genotype Homozygous Thr/Thr, Liver Function Abnormality Present): 51 (37.8%) | n (%) of patients (UGT1A6 gene; UGT1A6_765 Arg184Ser, Allele Arg Absent, Liver Function Abnormality Absent): 24 (8.8%) | n (%) of patients (UGT1A6 gene; UGT1A6_765 Arg184Ser, Allele Arg Absent, Liver Function Abnormality Present): 26 (19.3%) | n (%) of patients (UGT1A6 gene; UGT1A6_765 Arg184Ser, Allele Arg Present, Liver Function Abnormality Absent): 250 (91.2%) | n (%) of patients (UGT1A6 gene; UGT1A6_765 Arg184Ser, Allele Arg Present, Liver Function Abnormality Present): 109 (80.7%) | n (%) of patients (UGT1A6 gene; UGT1A6_765 Arg184Ser, Allele Ser Absent, Liver Function Abnormality Absent): 128 (46.7%) | n (%) of patients (UGT1A6 gene; UGT1A6_765 Arg184Ser, Allele Ser Absent, Liver Function Abnormality Present): 45 (33.3%) | n (%) of patients (UGT1A6 gene; UGT1A6_765 Arg184Ser, Allele Ser Present, Liver Function Abnormality Absent): 146 (53.3%) | n (%) of patients (UGT1A6 gene; UGT1A6_765 Arg184Ser, Allele Ser Present, Liver Function Abnormality Present): 90 (66.7%) | n (%) of allele copies (UGT1A6 gene; UGT1A6_765 Arg184Ser, Count Allele Arg, Liver Function Abnormality Absent): 378 (69.0%) | n (%) of allele copies (UGT1A6 gene; UGT1A6_765 Arg184Ser, Count Allele Arg, Liver Function Abnormality Present): 154 (57.0%) | n (%) of allele copies (UGT1A6 gene; UGT1A6_765 Arg184Ser, Count Allele Ser, Liver Function Abnormality Absent): 170 (31.0%) | n (%) of allele copies (UGT1A6 gene; UGT1A6_765 Arg184Ser, Count Allele Ser, Liver Function Abnormality Present): 116 (43.0%) | n (%) of patients (UGT1A6 gene; UGT1A6_765 Arg184Ser, Genotype Heterozygous Arg/Ser, Liver Function Abnormality Absent): 122 (44.5%) | n (%) of patients (UGT1A6 gene; UGT1A6_765 Arg184Ser, Genotype Heterozygous Arg/Ser, Liver Function Abnormality Present): 64 (47.4%) | n (%) of patients (UGT1A6 gene; UGT1A6_765 Arg184Ser, Genotype Homozygous Arg/Arg, Liver Function Abnormality Absent): 128 (46.7%) | n (%) of patients (UGT1A6 gene; UGT1A6_765 Arg184Ser, Genotype Homozygous Arg/Arg, Liver Function Abnormality Present): 45 (33.3%) | n (%) of patients (UGT1A6 gene; UGT1A6_765 Arg184Ser, Genotype Homozygous Ser/Ser, Liver Function Abnormality Absent): 24 (8.8%) | n (%) of patients (UGT1A6 gene; UGT1A6_765 Arg184Ser, Genotype Homozygous Ser/Ser, Liver Function Abnormality Present): 26 (19.3%) | n (%) of patients ([1]; Allele C Absent, Liver Function Abnormality Absent): 14 (5.1%) | n (%) of patients ([1]; Allele C Absent, Liver Function Abnormality Present): 4 (3.0%) | n (%) of patients ([1]; Allele C Present, Liver Function Abnormality Absent): 260 (94.9%) | n (%) of patients ([1]; Allele C Present, Liver Function Abnormality Present): 131 (97.0%) | n (%) of patients ([1]; Allele G Absent, Liver Function Abnormality Absent): 163 (59.5%) | n (%) of patients ([1]; Allele G Absent, Liver Function Abnormality Present): 101 (74.8%) | n (%) of patients ([1]; Allele G Present, Liver Function Abnormality Absent): 111 (40.5%) | n (%) of patients ([1]; Allele G Present, Liver Function Abnormality Present): 34 (25.2%) | n (%) of allele copies ([1]; Count Allele C, Liver Function Abnormality Absent): 423 (77.2%) | n (%) of allele copies ([1]; Count Allele C, Liver Function Abnormality Present): 232 (85.9%) | n (%) of allele copies ([1]; Count Allele G, Liver Function Abnormality Absent): 125 (22.8%) | n (%) of allele copies ([1]; Count Allele G, Liver Function Abnormality Present): 38 (14.1%) | n (%) of patients ([1]; Genotype Heterozygous G/C, Liver Function Abnormality Absent): 97 (35.4%) | n (%) of patients ([1]; Genotype Heterozygous G/C, Liver Function Abnormality Present): 30 (22.2%) | n (%) of patients ([1]; Genotype Homozygous C/C, Liver Function Abnormality Absent): 163 (59.5%) | n (%) of patients ([1]; Genotype Homozygous C/C, Liver Function Abnormality Present): 101 (74.8%) | n (%) of patients ([1]; Genotype Homozygous G/G, Liver Function Abnormality Absent): 14 (5.1%) | n (%) of patients ([1]; Genotype Homozygous G/G, Liver Function Abnormality Present): 4 (3.0%)
Compound: Cc1ccc(C(=O)c2cc(O)c(O)c([N+](=O)[O-])c2)cc1 [tolcapone]
cytotoxicity on inhibition of glucuronidation and oxidation [2]: increase cytotoxicity
